Results taken from PubChem BioAssay AID652241 (Broad Institute, 2013).
Inconclusive results are not listed. The source made the active and inactive calls.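 The calls were made as follows: active = fitted curve reaches activity 50 in the expected rising direction at or below the top valid tested dose; inconclusive = no clear call, values can overlap the other calls; inactive = activity in the wrong direction, and the rest.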

Target: Virion infectivity factor (Human immunodeficiency virus type 1 group M subtype B (isolate BH10)) + Virion infectivity factor (Human immunodeficiency virus type 1 group M subtype B (isolate BRU/LAI)) + Virion infectivity factor (Human immunodeficiency virus type 1 group M subtype B (isolate PCV12)) + Virion infectivity factor (Human immunodeficiency virus type 1 group M subtype B (isolate HXB2)) (UniProt P69720+P69721+P69722+P69723)
Sequence (P69720 whole entry, looked up): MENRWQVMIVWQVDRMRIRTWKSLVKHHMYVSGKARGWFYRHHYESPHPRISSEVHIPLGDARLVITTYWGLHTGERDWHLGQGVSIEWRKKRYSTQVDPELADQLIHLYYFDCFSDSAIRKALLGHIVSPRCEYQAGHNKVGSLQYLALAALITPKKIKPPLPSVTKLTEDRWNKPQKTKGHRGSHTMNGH
Sequence (P69721 whole entry, looked up): as the sequence (P69720 whole entry, looked up) above
Sequence (P69722 whole entry, looked up): as the sequence (P69720 whole entry, looked up) above
Sequence (P69723 whole entry, looked up): as the sequence (P69720 whole entry, looked up) above
Experiment: dose-dependent disruption of HIV Vif self-association – imaging, HEK293T, cherry-picks, dose response (AID 652241);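 also: imaged cell signal that rises when Vif self-association is disrupted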
Details: HEK293T Vif multimerization imaging, 24 h

CCC(=O)N(CCC1(C(C)C)CCOC(C)(C)C1)Cc1ccco1 (configuration not stated)
activity, higher = inhibition (at 19.5 µM (top of the series)): inactive

COc1ccc(NC(=O)c2ccccc2NC(=O)CSc2ccc(C)cc2)cc1
activity, higher = inhibition (at 19.5 µM (top of the series)): inactive

CCCCOc1ncnc2c1[nH]c1ccccc12
activity, higher = inhibition (at 19.5 µM (top of the series)): inactive

COc1ccc(-c2cc(C(=O)Nc3cnn(Cc4ccccc4C)c3)no2)cc1OC
AC50: 16.3 µM

O=C(CCN1CCOCC1)Nc1ccc(Cl)cc1
activity, higher = inhibition (at 19.5 µM (top of the series)): inactive

CC(C)CC(=O)Nc1ccc(-c2nnn(CC(=O)NCc3ccco3)n2)cc1
activity, higher = inhibition (at 19.5 µM (top of the series)): inactive

O=C(Nc1ccc2oc(-c3ccc4ccccc4c3)nc2c1)c1cccs1
activity, higher = inhibition (at 6.8 µM (top of the series)): inactive

COc1cc2c3nnc(-c4ccc(F)cc4)c-3cn(Cc3ccc(F)cc3)c2cc1OC
activity, higher = inhibition (at 6.8 µM (top of the series)): inactive

Cc1ccc2c(c1)N(CC(=O)N1CCCCCC1)C(=O)C(C)O2 (configuration not stated)
activity, higher = inhibition (at 19.5 µM (top of the series)): inactive

NC(c1csc(Nc2ccc(C(=O)c3ccccc3)cc2)n1)C1CCCCC1 (configuration not stated)
activity, higher = inhibition (at 6.8 µM (top of the series)): inactive

CN(C)C(=O)c1cc(Br)ccc1Cl
activity, higher = inhibition (at 19.5 µM (top of the series)): inactive

COc1ccccc1C(C)NC(=O)Cc1ccsc1 (configuration not stated)
activity, higher = inhibition (at 19.5 µM (top of the series)): inactive

COc1ccc(-c2nnc(SCC(=O)N3CCCc4ccccc43)o2)cc1OC
activity, higher = inhibition (at 19.5 µM (top of the series)): inactive

FC(F)(F)c1nnc2c3ccccc3c(Cl)nn12
AC50: 12.5 µM

COc1ccc(OC)c(NC(=O)c2cc3ccccc3cc2OC)c1
activity, higher = inhibition (at 6.8 µM (top of the series)): inactive

CCOc1nc(N2CCCCC2)nc(-n2cc(-c3ccccc3)nn2)n1
activity, higher = inhibition (at 19.5 µM (top of the series)): inactive

CC1Cc2ccccc2N1C(=O)COC(=O)c1ccccc1NCCO (configuration not stated)
activity, higher = inhibition (at 19.5 µM (top of the series)): inactive

COc1ccc(CN(CC(=O)NC2CCCC2)C(=O)CN2C(=O)COc3ccccc32)cc1
activity, higher = inhibition (at 19.5 µM (top of the series)): inactive

CCOc1cccc(C(=O)Nc2ccc3oc(Cc4ccc(Cl)cc4)nc3c2)c1
activity, higher = inhibition (at 19.5 µM (top of the series)): inactive

Cc1cc(S(=O)(=O)N2CCOCC2)ccc1OCC(=O)NCCN1CCOCC1
activity, higher = inhibition (at 19.5 µM (top of the series)): inactive

O=S(=O)(Nc1nc2ccccc2nc1NCc1ccco1)c1ccc(Cl)cc1
activity, higher = inhibition (at 19.5 µM (top of the series)): inactive

COc1ccc(-c2ccc3c(N)c(C(=O)c4ccc(OC)c(OC)c4)sc3n2)cc1
AC50: > 19.5 µM (inactive)

COc1ccc([C@H]2CC(=O)C=C(c3cc4ccccc4s3)C2)cc1
activity, higher = inhibition (at 19.5 µM (top of the series)): inactive

Cc1ccc(C(C)C)c(OCC#CCN2CCOCC2)c1
activity, higher = inhibition (at 19.5 µM (top of the series)): inactive

COc1ccccc1Oc1coc2cc(OCC(N)=O)ccc2c1=O
activity, higher = inhibition (at 19.5 µM (top of the series)): inactive

Cc1nn(Cc2c(Cl)cccc2Cl)c(C)c1NC(=O)c1cnn2c(C(F)F)cc(-c3ccccc3)nc12
AC50: 16.5 µM

CC(=O)Nc1cc(NC(=O)C2C3C=CC(C3)C2C(=O)O)ccc1Cl (configuration not stated)
activity, higher = inhibition (at 19.5 µM (top of the series)): inactive

COc1cc(OC)cc(C(=O)N[C@H](C(=O)Nc2ccc3c(c2)OCO3)C(C)C)c1
activity, higher = inhibition (at 19.5 µM (top of the series)): inactive

CC(C)OC(=O)c1ccc(NCc2cc(O)ccc2O)cc1Cl
AC50: 5 µM

OC(CNCc1ccccc1Cl)COc1ccc(F)cc1 (configuration not stated)
activity, higher = inhibition (at 19.5 µM (top of the series)): inactive

CCOC(=O)c1c(C)[nH]c(-c2csc(N)n2)c1C
activity, higher = inhibition (at 19.5 µM (top of the series)): inactive

CN1CCN(C(=S)c2ccc(OCC(=O)Nc3cccc(C(F)(F)F)c3)cc2)CC1
activity, higher = inhibition (at 19.5 µM (top of the series)): inactive

COc1ccc(N=C2NC(=O)S/C2=C\c2ccc(N(C)C)cc2)cc1
activity, higher = inhibition (at 19.5 µM (top of the series)): inactive

COc1ccc(CN(C(=O)Cn2nnc(-c3ccc(C)o3)n2)C(C(=O)NCC2CCCO2)c2ccco2)cc1 (configuration not stated)
activity, higher = inhibition (at 19.5 µM (top of the series)): inactive

CCOc1ccc(S(=O)(=O)NCc2ccccn2)cc1NC(=O)c1ccccc1
activity, higher = inhibition (at 19.5 µM (top of the series)): inactive

Cc1nc(C)n(CC(=O)N2CCCC(C(=O)c3ccc(C(F)(F)F)cc3)C2)n1 (configuration not stated)
activity, higher = inhibition (at 6.8 µM (top of the series)): inactive

CC(OC(=O)c1c[nH]c2ccccc12)C(=O)N1CCCC1 (configuration not stated)
activity, higher = inhibition (at 19.5 µM (top of the series)): inactive

O=C(c1cc(Cl)c(=O)n(Cc2ccccc2)c1)N1CCOCC1
activity, higher = inhibition (at 19.5 µM (top of the series)): inactive

COc1ccccc1-c1cccc2nccn12
activity, higher = inhibition (at 19.5 µM (top of the series)): inactive

CC(C)C(=O)N=C1SC2CS(=O)(=O)CC2N1Cc1ccccc1 (configuration not stated)
activity, higher = inhibition (at 19.5 µM (top of the series)): inactive

CC(C)C(c1nnnn1CC1CCCO1)N1CCN(C2CCCC2)CC1 (configuration not stated)
activity, higher = inhibition (at 19.5 µM (top of the series)): inactive

COc1cc2ccccc2cc1C(=O)Nc1ccc(Cl)cn1
AC50: 13 µM

CCOC(=O)Cc1csc(NC(=O)CSc2nnnn2-c2ccc(CC)cc2)n1
activity, higher = inhibition (at 19.5 µM (top of the series)): inactive

Cc1ccc(C(=O)COC(=O)c2cc(=O)[nH]c3ccccc23)cc1C
activity, higher = inhibition (at 19.5 µM (top of the series)): inactive

COc1ccc(-c2nc(CS(=O)(=O)CC(=O)NCCc3ccccc3)c(C)o2)cc1
activity, higher = inhibition (at 6.8 µM (top of the series)): inactive

CCn1c(CC(=O)Nc2ccccc2)nnc1SCC(=O)Nc1nnc(C)s1
activity, higher = inhibition (at 19.5 µM (top of the series)): inactive

O=C(Cc1ccccc1)OCC(=O)c1ccc(F)cc1
activity, higher = inhibition (at 19.5 µM (top of the series)): inactive

COc1ccc(Br)cc1C(=O)Nc1ccc(N2CCCC2)cc1
activity, higher = inhibition (at 19.5 µM (top of the series)): inactive

CCN(CC)C(=O)c1ccc(C(=O)c2c(C)cc(C)cc2C)cc1
activity, higher = inhibition (at 19.5 µM (top of the series)): inactive

COc1ccc(C(=O)NC2CC3CCCC(C2)N3Cc2ccccc2)cc1OC (configuration not stated)
activity, higher = inhibition (at 19.5 µM (top of the series)): inactive

COc1cc(Nc2nc3ccccc3n3nnnc23)cc(OC)c1OC
activity, higher = inhibition (at 6.8 µM (top of the series)): inactive

CCN1C(=O)c2cccc3c(S(=O)(=O)Nc4ccccc4O)ccc1c23
activity, higher = inhibition (at 19.5 µM (top of the series)): inactive

Cc1cc2cc(C#N)c(SCC(=O)Nc3nonc3C)nc2cc1C
AC50: 8.45 µM

CN1CCc2c(sc(NC(=O)c3cc(Cl)sc3Cl)c2C(N)=O)C1
activity, higher = inhibition (at 19.5 µM (top of the series)): inactive

O=C(NCc1cccnc1)NC1(C(F)(F)F)Oc2ccc(Cl)cc2O1 (configuration not stated)
AC50: 9.05 µM

C=CCn1c(O)c(C2=c3ccccc3=NC2=O)s/c1=N/c1nccs1
AC50: > 19.5 µM (inactive)

COc1ccc(OC)c(NC(=O)c2nc(-c3ccccc3)oc2C)c1
activity, higher = inhibition (at 19.5 µM (top of the series)): inactive

COc1ccc(-c2cc(C(F)(F)F)n3nc(C(=O)NCc4ccco4)c(Cl)c3n2)cc1
AC50: 8.52 µM

COCCNCC(=O)Nc1nc(C)cs1
activity, higher = inhibition (at 19.5 µM (top of the series)): inactive

COc1cc(C(C)=O)ccc1OCC(=O)NCC1(N2CCCCC2)CCCCC1
activity, higher = inhibition (at 19.5 µM (top of the series)): inactive

O=C(COC(=O)/C=C/C(=O)OCC(=O)Nc1ccccc1F)Nc1ccccc1F
activity, higher = inhibition (at 19.5 µM (top of the series)): inactive

O=C(NCC1CC1)NC(=O)c1c(F)cccc1Cl
activity, higher = inhibition (at 19.5 µM (top of the series)): inactive

O=C(CCCn1c(=S)[nH]c2ccccc2c1=O)N1CCN(c2cccc(Cl)c2)CC1
activity, higher = inhibition (at 19.5 µM (top of the series)): inactive

CCCOc1ccc(C(O)(CCC)CCN2CCCCC2)cc1 (configuration not stated)
activity, higher = inhibition (at 19.5 µM (top of the series)): inactive

N#CC(C(=O)NCCc1ccccc1)c1nc2ccccc2nc1N1CCOCC1 (configuration not stated)
activity, higher = inhibition (at 19.5 µM (top of the series)): inactive

COc1ccc(-c2cc(C(=O)Nc3ccc4c(c3)OCO4)no2)cc1
activity, higher = inhibition (at 19.5 µM (top of the series)): inactive

COCCN(C(=O)COC(=O)Cc1ccc(Cl)cc1)c1c(N)n(Cc2ccccc2)c(=O)[nH]c1=O
activity, higher = inhibition (at 19.5 µM (top of the series)): inactive

Cc1nn(C)cc1CN(C)Cc1ccc(OCC(O)CN2CCCCC2)cc1 (configuration not stated)
activity, higher = inhibition (at 19.5 µM (top of the series)): inactive

Cc1cc(C)cc(NC(=O)CCc2nc3sc4c(c3c(=O)[nH]2)CCCC4)c1
AC50: 14.6 µM

COc1cc(C2c3cc4c(cc3CC3COC(=O)C32)OCO4)cc(OC)c1OC (configuration not stated)
AC50: 9.81 µM

O=C(CCc1ccccc1)Nc1ccccc1
activity, higher = inhibition (at 19.5 µM (top of the series)): inactive

COc1cccc(-c2cc(NC=O)c3ncc(-c4cc(OC)c(OC)c(OC)c4)n3c2)c1
AC50: 4.25 µM
